Reference: patent US9539298B2, “Lissencephaly therapeutic agent” (OSAKA CITY UNIVERSITY, priority 2010, dated 2017)

Experiments:
[1] = system: Lis1+/− cerebellar granule nerve cells; assay: Migration capability of cerebellar granule nerve cells; assay type: cell-based, mouse; conditions: 200 μM, 18-24 hours, FIG. 5
Description: Cerebellum tissue fragments of LIS1 gene hetero-deficient and wild-type mice (3-7 days after birth) (10 mice for each group) were crushed by gentle pipetting, and treated with 0.025% trypsin (Gibco, 25200)/0.0013% DNaseI (Sigma, DN-25) at 37° C. for 20 minutes. After centrifugation, a BME culture solution (Gibco, 21010) containing 10% equine blood serum was added for washing, and the reaction was stopped. Thereafter, the reaction liquid was subjected to pipetting by adding a BME culture solution containing 0.0052% DNaseI/10% equine blood serum, and filtered with a cell mesh-strainer (diameter=70 μm; Becton Dickinson). […]
After the incubation, the aggregates were washed with a phosphate buffer (PBS), and immobilized by 4% paraformaldehyde (Wako, 162-16065) (at room temperature, for 15 minutes). […] Thereafter, the aggregates were repeatedly washed well with PBS, and carefully embedded using glycerol (Merck) for fluorescence microscope observation so as to avoid damage.
After careful observation using a confocal laser microscope (TCS-SP5, Leica), the migratory distance (μm) of the nerve cells from the marginal zone of the cerebellum granule cell aggregates was measured for each cell group. […] Further, an average migratory distance (μm) was calculated and expressed as average migratory distance (μm)±standard deviation. […]

[2] = system: LIS1 heterozygous adult mice; assay: LIS1 protein in adult mouse brains after SNJ-1945 intraperitoneal administration; assay type: in vivo; conditions: three weeks after birth
Description: SNJ-1945 was dissolved in dimethyl sulfoxide (DMSO) at a concentration of 100 mg/ml, and intraperitoneally injected to LIS1 heterozygous mice so that the administration amount was 100 μg/per gram of body weight at the time of three weeks after birth. To determine the effect of SNJ-1945 administration, LIS1 proteins of normal adult mice and LIS1 heterozygous adult mice (administered with SNJ-1945) were measured. In the SNJ-1945 administration group, the brain tissues were taken at 0 hour (immediately after the administration), 1 hour, 2 hours, 4 hours, 8 hours, 12 hours, 16 hours, 24 hours, 48 hours, and 72 hours after the administration to measure LIS1 protein, so as to determine the effect of SNJ-1945 over time. Six mice for each group were used for the measurement of LIS1 protein (n=6).
For the measurement of LIS1 protein amount, the weight of the brains was immediately measured as soon as the brains were removed.

COCCOCCOC(=O)N[C@@H](CC(C)C)C(=O)N[C@@H](Cc1ccccc1)C(=O)C(=O)NC1CC1 [compound 17, ((1S)-1-((((1S)-1-Benzyl-2,3-dioxo-3-(cyclopropylamino)propyl)amino)carbonyl)-3-methylbutyl)carbamic acid 5-methoxy-3-oxapentyl ester]
migration capability of nerve cells [1]: the recovery of migration capability was observed | LIS1 protein amount in adult brain ([2]; 100 μg per gram of body weight IP, FIG. 8): recovered to substantially the normal level | duration of the effect on LIS1 protein after a single dose ([2]; 100 μg/g IP): continued for at least three days
